Test results reported in US11903917B2, “MEK-inhibitor for the treatment of viral and bacterial infections” (priority 2017, dated 2024).
Like-named read-outs stand apart in the source and are kept apart here.

Legend:
S. aureus 6850 [1] = test: Over-night treated culture, bacterial titers (CFU/ml) and OD600; format: cell-based, Staphylococcus aureus; details: for effect on bacterial titers (CFU/ml): over night treatment, S. aureus 6850, vs solvent
S. aureus 6850 [2] = format: cell-based, Staphylococcus aureus
[3] = system: influenza A virus strain RB1 [A/Regensburg/D6/09 (H1N1 pdm09)]; test: Progeny virus inhibition assay in A549 cells; format: cell-based
[4] = Pharmacokinetics, drug in plasma after i.v. or per os application; format: in vivo, NMRI mice
Procedure: Blood was collected at 15 min, 30 min, 1 h, 2 h, 4 h, 6 h, 8 h and 24 h (test day 2) after administration and plasma was analysed for the presence of the drug. […] Blood was collected at 15 min, 30 min, 1 h, 2 h, 4 h, 6 h, 8 h and 24 h (test day 2) after administration and plasma was analysed for the presence of the drug. Each data point represents the mean value of three plasma samples. Graphpad Prism 7 software was used to illustrate both figures.
34.88 mg PD-0184264 were dissolved in 0.075 ml DMSO and further diluted with 0.225 ml Cremophor EL/2.7 ml PBS. […] 81.0 mg PD-0184264 were dissolved in 0.2 ml DMSO/0.6 ml Cremophor EL/3.2 ml PBS.
Eight week old male NMRI mice (Charles River Laboratories, Germany) with a body weight of 23.9-36.5 g at administration were used for pharmacokinetic studies. The animals were normally fed. Drinking water was available ad libitum.
Experiments were performed at LPT GmbH (Hamburg, Germany). Sufficient whole blood—taken under isoflurane anaesthesia—was collected to obtain at least 2×100 μl Li-Heparin plasma of 3 animals per group and time-point at the following times: 0 (predose), 15 min, 30 min, 1 h, 2 h, 4 h, 6 h, 8 h and 24 h (test day 2) after administration. The whole blood samples were instantly cooled using an Iso-Therm-Rack system (Eppendorf AG, Germany) until centrifugation within 0.5 hours after withdrawal. Immediately after centrifugation, the samples were stored at −20° C. until further analysis. Plasma analysis was performed using standard procedures at Prolytic GmbH (Frankfurt, Germany).
Drugs were either administrated using a single dosing on test day 1 by oral gavage or by Intravenous bolus injection into a tail vein. The Injection speed was 15 s/dose with an administration volume of 200 μl.

[5] = system: influenza A virus strain RB1 [A/Regensburg/D6/09 (H1N1 pdm09)]; details: against RB1, Haasbach et al. 2017; cited from earlier work
A549 cells = details: read-out: CC50 value; Haasbach et al. 2017; cited from earlier work
[6] = system: MRSA strain S. aureus (USA300); test: Cell-free culture bacterial growth (OD600); details: 50 μM, monitored for 360 minutes, vs solvent DMSO
Procedure: Bacterial growth was monitored for 360 minutes.
MRSA bacteria were incubated with different concentrations of the MEK inhibitor ranging from 0-100 μM and bacterial growth was monitored six hours after cultivation.

S. aureus 6850 [7] = test: MIC of antibiotics (MIC test stripes) after over-night treatment of bacteria with PD0184264; format: cell-based, Staphylococcus aureus; details: for MIC: read-out: Minimal inhibitory concentration (MIC)
S. aureus USA300 = test: as above; format: cell-based, Staphylococcus aureus; details: for MIC: Staphylococcus aureus, read-out: Minimal inhibitory concentration (MIC)
S. aureus = test: Resistance development during 17 days of constant treatment; format: cell-based, Staphylococcus aureus; details: 24 h cycles repeated for 17 days
MRSA strain USA300 = test: Over-night treated culture, bacterial titers (CFU/ml) and OD600; format: cell-based, Staphylococcus aureus
[8] = Staphylococcus aureus, 6850, S. aureus 6850, culture treated over night with 20 μM PD0184264
[9] = Staphylococcus aureus, 6850, S. aureus 6850, untreated (solvent) culture
[10] = USA300, S. aureus USA300, culture treated over night with PD0184264
[11] = USA300, S. aureus USA300, untreated (solvent) culture
[12] = S. aureus 6850, culture treated over night with 20 μM PD0184264
[13] = S. aureus 6850, untreated (solvent) culture
[14] = S. aureus USA300, culture treated over night with PD0184264
[15] = S. aureus USA300, untreated (solvent) culture

In the case of `O=C(NOCC1CC1)c1ccc(F)c(F)c1Nc1ccc(I)cc1Cl` [CI-1040, 2-(2-chloro-4-iodophenylamino)-N-(cyclopropylmethoxy)-3,4-difluoro benzamide, reference compound], the “effect on bacterial titers (CFU/ml)” value (S. aureus 6850 [1]) is reported as “effective”, the intracellular bacterial titers (S. aureus 6850 [2]) is reported as “no changes in intracellular bacterial load” and the “reduction of virus titer” value [3] is reported as 96.78±0.65%. The “drug in plasma at eight hours” value ([4]; 75 mg/kg i.v. application) was “almost no drug was detected”, the “drug in plasma at eight hours” value ([4]; 150 mg/kg per os application) was “almost no drug was detected” and the EC50 [5] was 0.026 µM. For the same molecule, the CC50 (A549 cells) was over 312 µM and the “bacterial growth (OD600)” value [6] was “slightly inhibited”.

In the case of `O=C(O)c1cn(C2CC2)c2cc(N3CCNCC3)c(F)cc2c1=O` [Ciprofloxacin], the MIC (S. aureus 6850 [7]; [8]) is reported as 0.12 to 0.25 mg/L, the MIC (S. aureus 6850 [7]; [9]) is reported as 0.25 mg/L and the MIC (S. aureus USA300; [10]) is reported as 4 to 8 mg/L. For the same molecule, the MIC (S. aureus USA300; [11]) was 8 mg/L.

For `CC[C@H]1OC(=O)[C@H](C)[C@@H](O[C@H]2C[C@@](C)(OC)[C@@H](O)[C@H](C)O2)[C@H](C)[C@@H](O[C@@H]2O[C@H](C)C[C@H](N(C)C)[C@H]2O)[C@](C)(O)C[C@@H](C)C(=O)[C@H](C)[C@@H](O)[C@]1(C)O` [Erythromycin], the “resistance development in S. aureus” value (S. aureus) was “readily develop resistances”.

Work on `CC(=O)NC[C@H]1CN(c2ccc(N3CCOCC3)c(F)c2)C(=O)O1` [Linezolid] yielded an MIC (S. aureus 6850 [7]; [8]) of 1 mg/L, an MIC (S. aureus 6850 [7]; [9]) of 2 mg/L and an MIC (S. aureus USA300; [10]) of 1 mg/L. For the same molecule, the MIC (S. aureus USA300; [11]) was 2 mg/L.

`C[C@@H](O)[C@H]1C(=O)N2C(C(=O)O)=C(S[C@@H]3CN[C@H](C(=O)N(C)C)C3)[C@H](C)[C@H]12` [Meropenem] gave an MIC (S. aureus 6850 [7]; [8]) of 0.03 mg/L, an MIC (S. aureus 6850 [7]; [9]) of 0.06 mg/L and an MIC (S. aureus USA300; [10]) of 0.06 mg/L. It also gave an MIC (S. aureus USA300; [11]) of 0.12 to 0.25 mg/L.

With `N#CC(=C(/N)Sc1ccccc1N)/C(C#N)=C(\N)Sc1ccccc1N` [U0126, reference compound] the “effect on bacterial titers (CFU/ml)” value (S. aureus 6850 [1]) was “minor reduction in bacterial titers” and the “effect on bacterial titers (CFU/ml)” value (MRSA strain USA300; over night treatment, MRSA USA300, vs solvent) was “minor reduction in bacterial titers”.

With Gentamicin the “Minimal inhibitory concentration (MIC)” value (S. aureus 6850 [7]; [12]) was 0.12 mg/L, the “Minimal inhibitory concentration (MIC)” value (S. aureus 6850 [7]; [13]) was 2 mg/L and the “Minimal inhibitory concentration (MIC)” value (S. aureus USA300; [14]) was 0.12 mg/L. The “Minimal inhibitory concentration (MIC)” value (S. aureus USA300; [15]) was 1 mg/L, the “reduction in bacterial titers” value (S. aureus 6850 [1]; 0.5 μg/ml, over night, S. aureus 6850) was “no reduction in bacterial titers” and the bacterial growth (S. aureus 6850 [1]; concentrations higher than 1 μg/ml, over night, S. aureus 6850) was “strongly inhibited”. The “reduction in bacterial titers” value (MRSA strain USA300; 0.5 μg/ml, over night, MRSA USA300) was “no reduction in bacterial titers”, the bacterial growth (MRSA strain USA300; concentrations higher than 1 μg/ml, over night, MRSA USA300) was “strongly inhibited” and the “resistance development in S. aureus” value (S. aureus) was “resistance development occurred during the first week of treatment”.

In the case of Penicillin, the “Minimal inhibitory concentration (MIC)” value (S. aureus 6850 [7]; [12]) is reported as 0.25 to 0.5 mg/L, the “Minimal inhibitory concentration (MIC)” value (S. aureus 6850 [7]; [13]) is reported as 16 mg/L and the “Minimal inhibitory concentration (MIC)” value (S. aureus USA300; [14]) is reported as 8 mg/L. For the same molecule, the “Minimal inhibitory concentration (MIC)” value (S. aureus USA300; [15]) was over 256 mg/L.
